Source: patent publication US20250074901A1, “NOVEL HETEROARYL COMPOUNDS” (ICAGEN, LLC, priority 2021, published 2025)

Biological target: T1, Kv7.2 (Homo sapiens, UniProt O43526)
T1 construct: expressed in transfected cells
Test: Activation of Kv7.2 (in vitro assay, concentration response curve)
Format: cell-based
Details: for Emax: Kv7.2 activation max %; for EC50: activation of Kv7.2
Procedure, shortened: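 Agonist activity was measured in vitro across a range of compound concentrations and plotted as a sigmoidal concentration–response curve. EC50 is the concentration giving 50% of that compound's own maximal response (Emax).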

| Structure (SMILES) | Emax [%] | EC50 [nM] |
| --- | --- | --- |
| C[C@H](O)C(NC(=O)N[C@H]1C[C@H](C(F)(F)F)C1)c1ccnc(OC(F)F)c1 (stereo partly drawn) [Example 287, 1-[(2S)-1-[2-(difluoromethoxy)pyridin-4-yl]-2-hydroxypropyl]-3-[(1r,3r)-3-(trifluoromethyl)cyclobutyl]urea] | 96 | 740 |
| O=C(NCc1ccnc(OCC(F)(F)F)c1)N[C@H]1C[C@H](C(F)F)C1 [Example 293, 1-[(1r,3r)-3-(difluoromethyl)cyclobutyl]-3-[[2-(2,2,2-trifluoroethoxy)pyridin-4-yl]methyl]urea] | 93 | 610 |
| O=C(NCc1ccnc(OC(F)F)c1)NC1CCC2C(C1)C2(F)F (centres unmarked) [Example 222, 1-(7,7-difluoro-3-bicyclo[4.1.0]heptanyl)-3-[[2-(difluoromethoxy)pyridin-4-yl]methyl]urea] | 76 | 180 |
| O=C(NCc1ccnc(OC(F)F)c1)N[C@H]1C[C@@H](OC(F)F)C1 [Example 265, 1-[(1s,3s)-3-(difluoromethoxy)cyclobutyl]-3-[[2-(difluoromethoxy)pyridin-4-yl]methyl]urea] | 47 | 470 |
| CC(F)(F)c1cc(CNC(=O)N[C@H]2C[C@H](C(F)(F)F)C2)ccn1 [Example 57, 1-[[2-(1,1-difluoroethyl)pyridin-4-yl]methyl]-3-[(1r,3r)-3-(trifluoromethyl)cyclobutyl]urea] | 60 | 610 |
| O=C(Nc1cc(F)cc(F)c1)NC(CO)c1ccnc(OCC(F)(F)F)c1 (centres unmarked) [Example 256, 1-(3,5-difluorophenyl)-3-[2-hydroxy-1-[2-(2,2,2-trifluoroethoxy)pyridin-4-yl]ethyl]urea] | 84 | 30 |
| CC(Oc1cc(CNC(=O)N[C@H]2C[C@H](C(F)(F)F)C2)ccn1)C(F)(F)F (some centres unmarked) [Example 221, 1-[(1r,3r)-3-(trifluoromethyl)cyclobutyl]-3-[[2-(1,1,1-trifluoropropan-2-yloxy)pyridin-4-yl]methyl]urea] | 78 | 70 |
| O=C(Nc1cccc(Cl)c1)NC(CO)c1ccnc(OCC(F)(F)F)c1 (centres unmarked) [Example 92, 1-(3-chlorophenyl)-3-[2-hydroxy-1-[2-(2,2,2-trifluoroethoxy)pyridin-4-yl]ethyl]urea] | 64 | 180 |
| CC1(NC(=O)NCc2ccnc(OC(F)F)c2)CCC(F)(F)CC1 [Example 143, 1-[[2-(difluoromethoxy)pyridin-4-yl]methyl]-3-(4,4-difluoro-1-methylcyclohexyl)urea] | 40 | 1050 |
| C[C@@H](O)C(NC(=O)N[C@H]1C[C@H](C(F)(F)F)C1)c1ccnc(OC(F)F)c1 (stereo partly drawn) [Example 286, 1-[(2R)-1-[2-(difluoromethoxy)pyridin-4-yl]-2-hydroxypropyl]-3-[(1r,3r)-3-(trifluoromethyl)cyclobutyl]urea] | 66 | 550 |
| O=C(NCc1ccnc(OC(F)F)c1)NC1CCC2C1C2(F)F (racemic) [Example 73, 1-[[2-(difluoromethoxy)pyridin-4-yl]methyl]-3-[rac-(1R,5R)-6,6-difluoro-2-bicyclo[3.1.0]hexanyl]urea] | 49 | 250 |
| O=C(NCc1ccnc(OC(F)F)c1)NCC1(F)CCC1 [Example 40, 1-[[2-(difluoromethoxy)pyridin-4-yl]methyl]-3-[(1-fluorocyclobutyl)methyl]urea] | 58 | 640 |
| O=C(NCc1ccnc(OC(F)F)c1)N[C@H]1C[C@H](C(F)(F)F)C1 [Example 42, 1-[[2-(difluoromethoxy)pyridin-4-yl]methyl]-3-[(1r,3r)-3-(trifluoromethyl)cyclobutyl]urea] | 58 | 70 |
| O=C(NCc1ccnc(OC(F)F)c1)N[C@@H]1C[C@H]2CC[C@@H]1O2 (racemic) [Example 102, 1-[[2-(difluoromethoxy)pyridin-4-yl]methyl]-3-[rac-(1R,2S,4S)-7-oxabicyclo[2.2.1]heptan-2-yl]urea] | 71 | 5860 |
| O=C(NCc1ccnc(-n2cnc(C(F)(F)F)c2)c1)NCC1CCC1 [Example 41, 1-(cyclobutylmethyl)-3-[[2-[4-(trifluoromethyl)imidazol-1-yl]pyridin-4-yl]methyl]urea] | 40 | 1130 |
| O=C(NCc1ccnc(-n2cccn2)c1)N[C@@H]1CCOc2ccccc21 [Example 1, 1-[(4R)-3,4-dihydro-2H-chromen-4-yl]-3-[(2-pyrazol-1-ylpyridin-4-yl)methyl]urea] | 54 | 2420 |
| O=C(NCc1ccnc(OC(F)F)c1)N[C@@H]1CC[C@@H](C(F)(F)F)C1 (single isomer, unassigned) [Example 206] | 75 | 490 |
| O=C(NCc1ccnc(OC(F)F)c1)NC1CC[C@@H]2CC[C@H]12 (mixture of isomers) [Example 196, 1-[[2-(difluoromethoxy)pyridin-4-yl]methyl]-3-[rac-(1R,5R)-2-bicyclo[3.2.0]heptanyl]urea] | 75 | 70 |
| O=C(NCc1ccnc(OC(F)F)c1)N[C@H]1CC[C@H](C(F)(F)F)C1 (single isomer, unassigned) [Example 207] | 58 | 230 |
| O=C(NCc1ccnc(OC(F)F)c1)NC12CC(C(F)(F)F)(C1)C2 [Example 178, 1-[[2-(difluoromethoxy)pyridin-4-yl]methyl]-3-[3-(trifluoromethyl)-1-bicyclo[1.1.1]pentanyl]urea] | 62 | 1860 |
| CC1(NC(=O)NCc2ccnc(OC(F)F)c2)CCC(F)(F)C1 (centres unmarked) [Example 142, 1-[[2-(difluoromethoxy)pyridin-4-yl]methyl]-3-(3,3-difluoro-1-methylcyclopentyl)urea] | 40 | 1030 |

The remaining lines, values ahead:

| Emax [%] | EC50 [nM] | Structure (SMILES) |
| --- | --- | --- |
| 62 | 20 | O=C(NCc1ccnc(OC(F)F)c1)NC1CC2CCCC2C1 (centres unmarked) [Example 78, 1-(1,2,3,3a,4,5,6,6a-octahydropentalen-2-yl)-3-[[2-(difluoromethoxy)pyridin-4-yl]methyl]urea] |
| 42 | 340 | O=C(NCc1ccnc(OC(F)F)c1)N[C@H]1[C@@H]2CC(F)(F)C[C@@H]21 [Example 271, 1-[[2-(difluoromethoxy)pyridin-4-yl]methyl]-3-[rac-(1R,5S,6R)-3,3-difluoro-6-bicyclo[3.1.0]hexanyl]urea] |
| 75 | 480 | CC(C)(C)CC1(NC(=O)NCc2ccnc(OC(F)F)c2)CC1 [Example 44, 1-[[2-(difluoromethoxy)pyridin-4-yl]methyl]-3-[1-(2,2-dimethylpropyl)cyclopropyl]urea] |
| 54 | 1490 | Cc1cccc(NC(=O)NCc2ccnc(OC(F)F)c2)n1 [Example 218, 1-[[2-(difluoromethoxy)pyridin-4-yl]methyl]-3-(6-methylpyridin-2-yl)urea] |
| 43 | 1400 | O=C(NCc1ccnc(OC(F)F)c1)NC1(C23CC(F)(C2)C3)CC1 [Example 177, 1-[[2-(difluoromethoxy)pyridin-4-yl]methyl]-3-[1-(3-fluoro-1-bicyclo[1.1.1]pentanyl)cyclopropyl]urea] |
| 86 | 1840 | COc1cc(CNC(=O)N[C@@H]2C[C@H]3CC[C@@H]2C3)ccn1 (racemic) [Example 14, 1-[(2-methoxypyridin-4-yl)methyl]-3-[rac-(1R,2R,4S)-2-bicyclo[2.2.1]heptanyl]urea] |
| 42 | 650 | C[C@@H](F)COc1cc(CNC(=O)NC23CCC(F)(CC2)CC3)ccn1 [Example 151, 1-(4-fluoro-1-bicyclo[2.2.2]octanyl)-3-[[2-[(2R)-2-fluoropropoxy]pyridin-4-yl]methyl]urea] |
| 60 | 210 | CC(F)(F)COc1cc(CNC(=O)NC23CC(F)(C2)C3)ccn1 [Example 201, 1-[[2-(2,2-difluoropropoxy)pyridin-4-yl]methyl]-3-(3-fluoro-1-bicyclo[1.1.1]pentanyl)urea] |
| 43 | 1050 | O=C(NCc1ccnc(OC(F)F)c1)Nc1cncc(Cl)c1 [Example 161, 1-(5-chloropyridin-3-yl)-3-[[2-(difluoromethoxy)pyridin-4-yl]methyl]urea] |
| 41 | 660 | O=C(NCc1ccnc(OC(F)F)c1)NCC1CC(F)(F)C1 [Example 181, 1-[(3,3-difluorocyclobutyl)methyl]-3-[[2-(difluoromethoxy)pyridin-4-yl]methyl]urea] |
| 40 | 1230 | O=C(NCc1ccnc(OC(F)F)c1)NC1(CC(F)(F)F)CC1 [Example 110, 1-[[2-(difluoromethoxy)pyridin-4-yl]methyl]-3-[1-(2,2,2-trifluoroethyl)cyclopropyl]urea] |
| 40 | 540 | O=C(NCc1ccnc(OC2CC(F)(F)C2)c1)NC12CC(F)(C1)C2 [Example 224, 1-[[2-(3,3-difluorocyclobutyl)oxypyridin-4-yl]methyl]-3-(3-fluoro-1-bicyclo[1.1.1]pentanyl)urea] |
| 53 | 230 | O=C(NCc1ccnc(OCC(F)(F)F)c1)NCC1CC(C(F)(F)F)C1 (centres unmarked) [Example 71, 1-[[2-(2,2,2-trifluoroethoxy)pyridin-4-yl]methyl]-3-[[3-(trifluoromethyl)cyclobutyl]methyl]urea] |
| 43 | 310 | O=C(NCc1ccnc(OCC(F)F)c1)NC12CC(F)(C1)C2 [Example 217, 1-[[2-(2,2-difluoroethoxy)pyridin-4-yl]methyl]-3-(3-fluoro-1-bicyclo[1.1.1]pentanyl)urea] |
| 51 | 370 | O=C(NCc1ccnc(SC(F)F)c1)N[C@H]1C[C@H](C(F)(F)F)C1 [Example 260, 1-[[2-(difluoro-methylsulfanyl)pyridin-4-yl]methyl]-3-[(1r,3r)-3-(trifluoromethyl)cyclobutyl]urea] |
| 62 | 600 | O=C(NCc1ccnc(OC(F)F)c1)N[C@@H]1CC[C@@H]2[C@H]1C2(F)F [Example 133, 1-[(1R,2R,5R)-6,6-difluoro-2-bicyclo[3.1.0]hexanyl]-3-[[2-(difluoromethoxy)pyridin-4-yl]methyl]urea] |
